Laboratory results as given in article PMC6669322, “Small Molecule Binding to Alzheimer Risk Factor CD33 Promotes Aβ Phagocytosis” (iScience, 2019).

Molecular target: T1, CD33 H45A (Homo sapiens, UniProt P20138, H45A)
T1 construct: human CD33 ORF (NM_001772.3), lacking its signal peptide; expressed in transfected cells; host or cells: HEK293T, transient, pT8-SNAP vector
Test: SNAP-tag homogeneous time-resolved fluorescence binding assay, CD33 H45A
Conditions: H45 mutated to alanine, in words
Method: We then used our structural data to design mutations of key residues interacting with P22 to assess which interactions were the most important for binding affinity. The residues were mutated into alanine, and the effect of these mutations on P22 binding affinity was assessed using a SNAP-tag homogeneous time-resolved fluorescence binding assay (see Transparent Methods and Figures 3E–3G). The R119A mutation, which destroys the salt bridge between P22 and CD33, was one of the most detrimental to binding (>30-fold loss) (Figure 2C and Table S4). […]
HEK293T cells were cultured in DMEM (ThermoFisher Scientific # 11965092) containing 10% FBS (Hyclone # SH30070.03) and 1% Penicillin-Streptomycin (ThermoFisher Scientific # 15140122) and transfected using Fugene HD (Promega # E2312) in 10 cm plates. […] The cells were counted, centrifuged and resuspended in PBS at a concentration of 1,000 cells/μL and 10 μL were plated into each well. […] Non-specific binding was assessed by competition with 100 μM of the non-labeled P22, as well as in control (Snap-tagged dopamine D2R receptor)-transfected cells.
Fluorescence was read with a PHERAstar plate reader using an excitation of 337 nm and emissions of 620 and 665 nm. […]

T1 sequence (P20138 18-364 H45A): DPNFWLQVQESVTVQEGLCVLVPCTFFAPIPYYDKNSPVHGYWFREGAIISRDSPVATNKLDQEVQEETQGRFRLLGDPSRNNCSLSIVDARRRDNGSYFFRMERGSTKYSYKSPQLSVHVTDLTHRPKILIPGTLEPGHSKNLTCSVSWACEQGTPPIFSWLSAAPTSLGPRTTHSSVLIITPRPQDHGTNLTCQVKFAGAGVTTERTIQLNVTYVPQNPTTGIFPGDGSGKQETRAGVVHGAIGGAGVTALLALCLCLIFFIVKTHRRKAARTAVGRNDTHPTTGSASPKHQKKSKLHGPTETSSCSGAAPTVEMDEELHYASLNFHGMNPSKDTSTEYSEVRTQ

With `Cc1cc(C(=O)NC[C@@H](O)[C@@H](O)[C@@H]2O[C@@](OC[C@H]3O[C@@H](O[C@H]4[C@H](O)[C@@H](O)[C@H](OCCN)O[C@@H]4CO)[C@H](O)[C@@H](O)[C@H]3O)(C(=O)O)C[C@H](O)[C@H]2NC(=O)Cn2cc(C3CCCCC3)nn2)cc(C)c1O` [P22, β-D-Glucopyranoside, 2-aminoethyl O-[N-[2-(4-cyclohexyl-1H-1,2,3-triazol-1-yl)acetyl]-9-deoxy-9-[(4-hydroxy-3,5-dimethylbenzoyl)amino]-α-neuraminosyl] (2→6)-O-β-D-galactopyranosyl-(1→4)-] the “impact of mutation on P22 binding affinity” value was “little to no significant impact”.
